This experiment addresses T1, human TLR8 (Homo sapiens, UniProt Q9NR97).
T1 construct: host or cells: HEK-293, then stably transfected with pNiFty2(NF-kappaB)-luciferase reporter
T1 sequence (Q9NR97 27-1041): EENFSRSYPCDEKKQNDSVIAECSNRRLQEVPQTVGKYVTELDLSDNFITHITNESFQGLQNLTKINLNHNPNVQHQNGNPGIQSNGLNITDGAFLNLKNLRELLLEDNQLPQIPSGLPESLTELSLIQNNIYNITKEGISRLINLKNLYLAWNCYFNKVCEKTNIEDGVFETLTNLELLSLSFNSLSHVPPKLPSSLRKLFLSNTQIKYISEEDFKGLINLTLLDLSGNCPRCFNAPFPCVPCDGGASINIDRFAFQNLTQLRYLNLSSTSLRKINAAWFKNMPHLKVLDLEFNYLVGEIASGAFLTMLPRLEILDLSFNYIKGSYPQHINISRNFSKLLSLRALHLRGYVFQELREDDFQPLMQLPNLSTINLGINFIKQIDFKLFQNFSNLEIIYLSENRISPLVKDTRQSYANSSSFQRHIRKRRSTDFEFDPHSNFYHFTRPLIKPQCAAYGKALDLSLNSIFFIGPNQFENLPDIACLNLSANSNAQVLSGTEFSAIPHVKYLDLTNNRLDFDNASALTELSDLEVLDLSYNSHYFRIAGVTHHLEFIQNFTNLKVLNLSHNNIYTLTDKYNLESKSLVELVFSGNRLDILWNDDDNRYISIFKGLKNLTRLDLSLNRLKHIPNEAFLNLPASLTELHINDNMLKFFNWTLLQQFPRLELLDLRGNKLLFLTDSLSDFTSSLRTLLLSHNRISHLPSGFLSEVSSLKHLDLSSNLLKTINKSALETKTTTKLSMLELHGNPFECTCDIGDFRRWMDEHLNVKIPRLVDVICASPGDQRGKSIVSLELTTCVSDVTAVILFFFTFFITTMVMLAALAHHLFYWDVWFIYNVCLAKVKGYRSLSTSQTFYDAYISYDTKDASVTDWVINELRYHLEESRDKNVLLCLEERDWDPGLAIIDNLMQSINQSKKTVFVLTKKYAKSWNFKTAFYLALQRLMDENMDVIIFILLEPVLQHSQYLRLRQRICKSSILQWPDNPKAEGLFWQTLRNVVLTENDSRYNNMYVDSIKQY
Kind of experiment: HEK-293 human TLR8 NF-kappaB luciferase reporter assay (CL097). The format is cell-based. The procedure:
Effects on mouse TLR7 were also compared. Cells were stimulated overnight with TLR7/8 agonist CL097 at pre-determined ED70-80: 3 ug/ml for HEK-hTLR7, 1.5 ug/ml for HEK-mTLR7 and 12 ug/ml for HEK-hTLR8, before reading luminescence intensity. Three tests were performed and IC50 value was determined using Graphpad Prism 6 nonlinear regression curve fit.
HEK-293 cells (ATCC) were engineered to stably express a NF-kappaB transcription factor inducible E-selectin (ELAM-1) luciferase reporter derived from the plasmid pGL3 (Promega) containing base pairs −2241 bp to −254 bp from the promoter of the human E-selectin gene (Accession No. NM_000450). These cells were then subsequently engineered to stably and individually express human TLR4, TLR7 or TLR9 full-length ORF cDNAs. Human TLR4 cDNA (Accession No. NM_138554) was cloned into pcDNA 3.0 expression vector (Invitrogen). TLR4 transfected cells were also engineered to express human MD-2 co-receptor [MD-2 cDNA (Accession No. NM_015364) was cloned into the pEF-BOS vector] and were supplemented with 10 nM soluble CD14 (R&D Systems) in the media to optimize LPS responsiveness. Human TLR9 cDNA (Accession No. NM_017442) was cloned into the pBluescript II KS vector (Agilent). Human TLR7 cDNA (Accession No. NM_016562) was obtained from OriGene. HEK-293 cells stably expressing human TLR8 (Accession No. NM_138636) or mouse TLR7 (Accession No. NM_133211) were purchased from InvivoGen and were then stably transfected with pNiFty2(NF-kappaB)-luciferase reporter plasmid (InvivoGen). Each cell type was plated in Dulbecco's modified Eagle's medium (DMEM) containing 10% fetal bovine serum (FBS) at a density of 2.22×10^5 cells/ml into a 384-well plate and incubated for 2 days at 37° C., 5% CO2. Varying concentrations of antagonist compounds were then added. Cells were then incubated for another 30 minutes before adding the appropriate TLR agonist as follows (final concentrations indicated): lipopolysaccharide (LPS; Sigma) at 10 ng/ml for TLR4, CL097 (InvivoGen) at 3 ug/ml for human TLR7 and TLR8 and mouse TLR7, and CvG-2006-2A [sequence: […] (SEQ ID NO: 1) with phosphorothioate backbone, synthesized by Sigma-Aldrich] at 0.6 uM for TLR9.
(A reporter such as luciferase makes a cellular process visible.)

The mark [1] stands for this setting: HEK-293 assay format, read-out: HEK/hTLR8 IC50.

Drawing on patent USRE47193E1, “Selectively substituted quinoline compounds” (EISAI R&D MANAGEMENT CO., LTD., priority 2013, dated 2019), this text covers IC50 for 16 compounds.

Molecules are shown by their SMILES. “And” between values parts separate entries of the source, which are not always exact repeats. Equal values may be shown once. Read-outs that look alike come from different tables or passages of the source. Bounds are passed on as bounds.

With `C[C@@H]1CN(c2ccc(C#N)c3ncccc23)C[C@H](C)O1` [ER-878952], the IC50 under setting [1] was 6 nM and 19.5 nM.

As to `C[C@@H]1CN(c2ccc(C#N)c3ncccc23)C[C@H](CO)O1` [ER-885493, 5-((2R,6R)-2-(hydroxymethyl)-6-methylmorpholino)quinoline-8-carbonitrile], the IC50 under setting [1] stood at 101 nM.

Take `CC1CN(c2ccc(C#N)c3ncccc23)CC(CN2CCCC2CO)O1` (stereo not drawn) [ER-886814]: under setting [1], the IC50 was determined as 60 nM.

On to `C[C@@H]1CN(c2ccc(C#N)c3ncccc23)C[C@H](CN2CC[C@H](O)C2)O1` [ER-886820], for which, under setting [1], the IC50 amounted to 78 nM.

As for `C[C@@H]1CN(c2ccc(C#N)c3ncccc23)C[C@H](CN2CCC(O)CC2)O1` [ER-886953], under setting [1], the IC50 amounted to 66 nM.

Regarding `C[C@@H]1CN(c2ccc(C#N)c3ncccc23)C[C@H](CNC2CCCC2)O1` [ER-887145], under setting [1], the IC50 was found to be 105 nM.

As to `C[C@@H]1CN(c2ccc(C#N)c3ncccc23)C[C@H](CN2CCNCC2)O1` [ER-887253], the IC50 under setting [1] was 2 nM.

`C[C@@H]1CN(C[C@H]2CN(c3ccc(C#N)c4ncccc34)C[C@@H](C)O2)CCN1` [ER-887269]: the IC50 under setting [1] is 3.2 nM.

Consider `CC1CNC(=O)CN1C[C@H]1CN(c2ccc(C#N)c3ncccc23)C[C@@H](C)O1` (stereo partly drawn) [ER-887722], for which the IC50 under setting [1] was 21 nM.

In the case of `C[C@@H]1CN(c2ccc(C#N)c3ncccc23)C[C@H](CN2CCN(C)CC2)O1` [ER-887723], the IC50 under setting [1] is 9 nM.

In the case of `CCCN1CCN(C[C@H]2CN(c3ccc(C#N)c4ncccc34)C[C@@H](C)O2)CC1` [ER-887724], the IC50 under setting [1] amounted to 6 nM.

For `CC1CN(c2ccc(C#N)c3ncccc23)CC(CN2CCC(N(C)C)CC2)O1` (stereo not drawn) [ER-887725], the IC50 under setting [1] came out at 1 nM.

Take `C[C@@H]1CN(c2ccc(C#N)c3ncccc23)C[C@H](CN2CCC(N3CCCCC3)CC2)O1` [ER-887927, 5-((2S,6R)-2-([1,4′-bipiperidin]-1′-ylmethyl)-6-methylmorpholino)quinoline-8-carbonitrile]: the IC50 under setting [1] stood at 0.5 nM.

Turning to `CC[C@H]1CN(C[C@H]2CN(c3ccc(C#N)c4ncccc34)C[C@@H](C)O2)CCN1` [ER-890963], under setting [1], the IC50 was 2.8 nM.

Turning to `C[C@@H]1CN(c2ccc(C#N)c3ncccc23)C[C@H](C(=O)N[C@H]2CNC[C@H]2F)O1.Cl` [ER-899742, (2R,6R)-4-(8-cyanoquinolin-5-yl)-N-[(3S,4R)-4-fluoropyrrolidin-3-yl]-6-methylmorpholine-2-carboxamide hydrochloride], the IC50 was 2 nM and 2.5 nM and 2.6 nM (IC50, HEK-hTLR8, CL097 12 ug/ml, individual tests 1-3); 2.4 nM (IC50 average, HEK-hTLR8, CL097 12 ug/ml, average of three tests).

On to `CCN(CCO)CCCC(C)Nc1ccnc2cc(Cl)ccc12` (stereo not drawn) [HCQ, hydroxychloroquine, reference compound], for which the IC50 (HEK-hTLR8, CL097 12 ug/ml, average of three tests, read-out: IC50 average) was above 10000 nM and the IC50 (HEK-hTLR8, CL097 12 ug/ml, individual tests 1-3, read-out: IC50) is above 10000 nM.
